Laboratory results as given in PubChem BioAssay (NCI).
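Grown in 96-well plates, cells were treated for 48 hours with each compound at five concentrations. Insufficient inhibition: endpoint recorded as highest concentration tested. TGI: concentration producing complete growth inhibition.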

Assays:
Assay in all cases: NCI anticancer screen, dose series, 48 h
IGROV1 ovarian = tested on: IGROV1 ovarian
SF-539 CNS = tested on: SF-539 CNS
OVCAR-5 ovarian = tested on: OVCAR-5 ovarian
SK-MEL-5 melanoma = tested on: SK-MEL-5 melanoma
SK-OV-3 ovarian = tested on: SK-OV-3 ovarian
SK-MEL-28 melanoma = tested on: SK-MEL-28 melanoma
COLO 205 colon = tested on: COLO 205 colon
SF-295 CNS = tested on: SF-295 CNS
SNB-78 CNS = tested on: SNB-78 CNS
HCC-2998 colon = tested on: HCC-2998 colon
M19-MEL melanoma = tested on: M19-MEL melanoma
HOP-62 NSCLC = tested on: HOP-62 NSCLC
CCRF-CEM leukemia = tested on: CCRF-CEM leukemia
NCI-H522 lung = tested on: NCI-H522 lung
DMS 273 small cell lung = tested on: DMS 273 small cell lung
RXF 393 renal = tested on: RXF 393 renal
NCI-H460 lung = tested on: NCI-H460 lung
SK-MEL-2 melanoma = tested on: SK-MEL-2 melanoma
HOP-92 NSCLC = tested on: HOP-92 NSCLC
SNB-19 CNS = tested on: SNB-19 CNS
HCT-15 colon = tested on: HCT-15 colon
RPMI-8226 leukemia = tested on: RPMI-8226 leukemia
786-0 renal = tested on: 786-0 renal
HL-60(TB) leukemia = tested on: HL-60(TB) leukemia
M14 melanoma = tested on: M14 melanoma
UO-31 renal = tested on: UO-31 renal
ACHN renal = tested on: ACHN renal
SNB-75 CNS = tested on: SNB-75 CNS
EKVX NSCLC = tested on: EKVX NSCLC
LOX IMVI melanoma = tested on: LOX IMVI melanoma
MALME-3M melanoma = tested on: MALME-3M melanoma
U251 CNS = tested on: U251 CNS
DLD-1 colon = tested on: DLD-1 colon
A498 renal = tested on: A498 renal
UACC-62 melanoma = tested on: UACC-62 melanoma
TK-10 renal = tested on: TK-10 renal
CAKI-1 renal = tested on: CAKI-1 renal
HT29 colon = tested on: HT29 colon
A549 NSCLC = tested on: A549 NSCLC
HCT-116 colon = tested on: HCT-116 colon
K-562 leukemia = tested on: K-562 leukemia
SF-268 CNS = tested on: SF-268 CNS
OVCAR-3 ovarian = tested on: OVCAR-3 ovarian
KM12 colon = tested on: KM12 colon
OVCAR-8 ovarian = tested on: OVCAR-8 ovarian
KM20L2 colon = tested on: KM20L2 colon
SN12C renal = tested on: SN12C renal
SW-620 colon = tested on: SW-620 colon
UACC-257 melanoma = tested on: UACC-257 melanoma
DMS 114 small cell lung = tested on: DMS 114 small cell lung
NCI-H226 lung = tested on: NCI-H226 lung
OVCAR-4 ovarian = tested on: OVCAR-4 ovarian
NCI-H23 lung = tested on: NCI-H23 lung
MOLT-4 leukemia = tested on: MOLT-4 leukemia
LXFL 529 NSCLC = tested on: LXFL 529 NSCLC
HOP-18 NSCLC = tested on: HOP-18 NSCLC

Measured: TGI

CCNc1c(C(=O)N(CC)CC)c(=O)[nH]c2ncccc12
not listed: HOP-18 NSCLC
> 100 µM: all other assays above

CS(=O)(=O)N(CCC#N)c1ccc(/C=N/NC(=O)CC(=O)Nc2cccc(Cl)c2)cc1
not listed: HOP-92 NSCLC | HL-60(TB) leukemia
> 100 µM: all other assays above
